Data taken from patent US7345081B2, “Azabicyclo-octane inhibitors of IAP” (Genentech, Inc., priority 2004, dated 2008).

Experiments:
MLXBIR3SG [1] = target: T1, MLXBIR3SG (Homo sapiens, UniProt Q96CA5, S150G); experiment: TR-FRET peptide binding assay; conditions: TR-FRET competition; 300 nM his-tagged MLXBIR3SG, 200 nM biotinylated SMAC peptide (AVPI)
T1 sequence (Q96CA5 with tags, fused parts or gaps S150G): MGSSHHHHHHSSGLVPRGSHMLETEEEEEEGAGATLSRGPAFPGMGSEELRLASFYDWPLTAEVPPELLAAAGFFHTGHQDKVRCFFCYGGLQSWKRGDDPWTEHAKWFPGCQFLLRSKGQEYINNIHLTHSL
Experimental: The improved caspase-9 inhibition of the chimeric BIR domain MLXBIR3SG has been correlated with increased inhibition of doxorubicin-induced apoptosis when transfected into MCF7 cells. TR-FRET Peptide Binding Assay Time-Resolved Fluorescence Resonance Energy Transfer competition experiments were performed on the Wallac Victor2 Multilabeled Counter Reader (Perkin Elmer Life and Analytical Sciences, Inc.) according to the procedures of Kolb et al (Journal of Biomolecular Screening, 1996, 1(4):203). A reagent cocktail containing 300 nM his-tagged MLXBIR3SG; 200 nM biotinylated SMAC peptide (AVPI); 5 μg/mL anti-his allophycocyanin (XL665) (CISBio International); and 200 ng/mL streptavidin-europium (Perkin Elmer) was prepared in reagent buffer (50 mM Tris [pH 7.2], 120 mM NaCl, 0.1% bovine globulins, 5 mM DTT and 0.05% octylglucoside). […] The reagent cocktail was incubated at room temperature for 30 minutes. […] After a 90 minute incubation at room temperature, the fluorescence was read with filters for the excitation of europium (340 nm) and for the emission wavelengths of europium (615 nm) and a allophycocyanin (665 nm). Antagonist data were calculated as a ratio of the emission signal of allophycocyanin at 665 nm to that of the emission of europium at 615 nm (these ratios were multiplied by a factor of 10,000 for ease of data manipulation). The resulting values were plotted as a function of antagonist concentration and fit to a 4-parameter equation using Kaleidograph software (Synergy Software, Reading, Pa.). Indications of antagonist potency were determined from the IC50 values.

MLXBIR3SG [2] = target: T1, MLXBIR3SG; experiment: Fluorescence polarization peptide binding assay; conditions: fluorescence polarization competition; for Ki: Ki determined from the IC50 values; for IC50: MLXBIR3SG at 30 nM, 5 nM AVP-diPhe-FAM probe
Experimental: The improved caspase-9 inhibition of the chimeric BIR domain MLXBIR3SG has been correlated with increased inhibition of doxorubicin-induced apoptosis when transfected into MCF7 cells. Fluorescence Polarization Peptide Binding Assay Polarization experiments were performed on an Analyst HT 96-384 (Molecular Devices Corp.) according to the procedure of […]., Zioncheck, K., Clark, K., Arellano, F., and Bodary., S.(2000) in Proceedings of SPIE : In Vitro Diagnostic Instrumentation (Cohn, G. E., Ed.) pp 128-137, Bellingham, Wash. […] Fluorescence values were plotted as a function of the protein concentration, and the IC50s were obtained by fitting the data to a 4-parameter equation using Kaleidograph software (Synergy software, Reading, Pa.). […] Samples were read after a 10-minute incubation. Fluorescence polarization values were plotted as a function of the antagonist concentration, and the IC50 values were obtained by fitting the data to a 4-parameter equation using Kaleidograph software (Synergy software, Reading, Pa.). Inhibition constants (Ki) for the antagonists were determined from the IC50 values.

Row | IC50 (MLXBIR3SG [1]) | Ki (MLXBIR3SG [2]) | IC50 (MLXBIR3SG [2]) | SMILES
1 | < 10 µM |  |  | CN[C@@H](C)C(=O)N[C@H](C(=O)N1CCC2CCC(NC(=O)C3COc4ccccc43)C21)C(C)(C)C (stereo partly drawn) [Compound 3]
2 | < 10 µM | < 0.2 µM | < 1 µM | CN[C@@H](C)C(=O)N[C@H](C(=O)N1CCC2CCC(NC(=O)C(c3ccccc3)c3ccc(F)cc3)C21)C(C)(C)C (stereo partly drawn) [Compound 4]
3 | < 10 µM |  |  | COc1ccc2ccccc2c1C(=O)NC1CCC2CCN(C(=O)C(NC(=O)C(C)N)C(C)C)C21 (stereo not drawn) [Compound 5]
4 | < 10 µM | < 0.2 µM | < 1 µM | CN[C@@H](C)C(=O)N[C@H](C(=O)N1CCC2CCC(NC(=O)c3ccc(C)c4ccccc34)C21)C(C)(C)C (stereo partly drawn) [Compound 6]
5 | < 10 µM |  |  | CNC(C)C(=O)NC(C(=O)N1CCC2CCC(NC(=O)C(c3ccccc3)c3ccccc3)C21)C(C)(C)C (stereo not drawn) [Compound 9]
6 | < 10 µM |  |  | CN[C@@H](C)C(=O)N[C@H](C(=O)N1CCC2CCC(NC(=O)c3coc4ccccc34)C21)C(C)(C)C (stereo partly drawn) [Compound 11]
7 | < 10 µM | < 0.2 µM | < 1 µM | CN[C@@H](C)C(=O)N[C@H](C(=O)N1CCC2CCC(NC(=O)c3c(OC)ccc4ccccc34)C21)C(C)(C)C (stereo partly drawn) [Compound 12]
8 | < 10 µM |  |  | C[C@H](N)C(=O)N[C@H](C(=O)N1CCC2CCC(NC(=O)c3cccc4ccccc34)C21)C(C)(C)C (stereo partly drawn) [Compound 13]
9 | < 10 µM |  |  | CN[C@@H](C)C(=O)N[C@H](C(=O)N1CCC2CCC(NC(=O)c3ccccc3)C21)C(C)(C)C (stereo partly drawn) [Compound 14]
10 | < 10 µM | < 0.2 µM | < 1 µM | CN[C@@H](C)C(=O)N[C@H](C(=O)N1CCC2CCC(NC(=O)c3csc4ccccc34)C21)C(C)(C)C (stereo partly drawn) [Compound 16]
11 | < 10 µM |  |  | CN[C@@H](C)C(=O)N[C@H](C(=O)N1CCC2CCC(NC(=O)c3cccc4ccccc34)C21)C(C)(C)C (stereo partly drawn) [Compound 21]
12 | < 10 µM |  |  | C[C@H](N)C(=O)N[C@H](C(=O)N1CCC2CCC(NC(=O)C(c3ccccc3)c3ccccc3)C21)C(C)(C)C (stereo partly drawn) [Compound 22]
13 | < 10 µM | < 0.2 µM | < 1 µM | CN[C@@H](C)C(=O)N[C@H](C(=O)N1CCC2CCC(NC(=O)c3ccc(F)c4ccccc34)C21)C(C)(C)C (stereo partly drawn) [Compound 24]
14 | < 10 µM |  |  | CN[C@@H](C)C(=O)N[C@H](C(=O)N1CCC2CCC(NC(=O)c3cccc4ccccc34)C21)C1CCCCC1 (stereo partly drawn) [Compound 28]
